The target of one test is T1, hASIC1b (Homo sapiens, UniProt P78348).
T1 construct: expressed in transfected cells; host or cells: Xenopus laevis oocytes (cRNA injection)
T1 sequence (P78348 1-562 isoform P78348-3): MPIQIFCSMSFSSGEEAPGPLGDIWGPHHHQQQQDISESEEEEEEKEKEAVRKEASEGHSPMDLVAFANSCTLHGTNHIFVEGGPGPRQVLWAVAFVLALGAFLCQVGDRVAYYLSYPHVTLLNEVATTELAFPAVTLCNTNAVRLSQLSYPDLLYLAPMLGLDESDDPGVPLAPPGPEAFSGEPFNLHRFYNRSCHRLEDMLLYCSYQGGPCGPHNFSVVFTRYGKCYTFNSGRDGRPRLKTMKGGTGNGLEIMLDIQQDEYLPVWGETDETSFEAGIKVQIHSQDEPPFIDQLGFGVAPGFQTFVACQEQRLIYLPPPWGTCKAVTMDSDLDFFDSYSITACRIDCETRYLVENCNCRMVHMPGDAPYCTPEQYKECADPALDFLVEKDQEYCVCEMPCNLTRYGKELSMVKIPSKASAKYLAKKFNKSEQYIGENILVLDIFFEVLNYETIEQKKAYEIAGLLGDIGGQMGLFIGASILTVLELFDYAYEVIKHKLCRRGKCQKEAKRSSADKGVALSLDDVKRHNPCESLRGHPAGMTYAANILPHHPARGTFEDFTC
In words: TEVC in Xenopus laevis oocytes expressing hASIC1b. The conditions noted are these: for remaining activity at 1 µM: 1 µM peptide, conditioning pH 7.45, mean, n ≥ 5, read-out: I/Icontrol. The class given is cell-based. The procedure: (§1) Two-electrode voltage-clamp (TEVC) experiments using Xenopus laevis oocytes were conducted as previously described. Briefly, oocytes were surgically removed from anaesthetised female frogs, then treated with collagenase (~ 1 mg/ml, Sigma type I) for 2 h under agitation at room temperature. cRNAs were synthesised using a mMessage mMachine T7 or SP6 transcription kit (Thermo Fisher Scientific Australia Pty Ltd, Scoresby, VIC, Australia) and injected into healthy stage V–VI oocytes at 0.2–20 ng per cell. Different amounts of RNA were used for different wild-type and mutant constructs, as well as to titrate expression levels to record over multiple days and maintaining consistent expression levels. Injected oocytes were incubated at 17 °C for 1–7 days in 50% Leibovitz’s L-15 medium (Gibco, Thermo Fisher Scientific Australia Pty Ltd, Scoresby, VIC, Australia), supplemented with 25 µg/mL gentamicin, 25 µg/mL streptomycin, and 2.5% fetal horse serum. Membrane currents were recorded 2–7 days after cRNA-injection under voltage-clamp at -60 mV (Axon Axoclamp 900 A, Molecular Devices, CA, USA) using two standard glass microelectrodes of 0.5–1 MΩ resistance when filled with 3 M KCl solution. Data were sampled at 2 kHz and filtered at 0.1 kHz using Clampex 10 software (Molecular Devices, CA, USA). A microperfusion system was used to allow fast extracellular solution exchange (bath volume = ~ 30 µL). All experiments were performed at room temperature (18–23 °C) in ND96 (96 mM NaCl, 2 mM KCl, 1.8 mM CaCl2, 2 mM MgCl2, 5 mM HEPES, pH 7.45). In solutions below pH 6.8, HEPES was replaced by MES. All solutions containing peptides contained 0.05% fatty acid free bovine serum albumin to decrease adsorptive losses of peptide to plasticware. For all channels tested, control current magnitudes between 500 and 9000 nA when tested using a conditioning pH of 7.45 and stimulating pH of 6 (except for the chimeras that were stimulated with pH 5) were used for data collection. Before recording any experiments, oocytes were stimulated multiple times with low pH to minimise and stabilise tachyphylaxis/desensitisation, which were then accounted for during analysis. Complete recovery of currents from Ma-3 induced modulation within 3 min of washout at all channels tested allowed for correction for tachyphylaxis/desensitisation during analyses.
(§2) Specific to this work, the standard protocol was for oocytes to be conditioned at pH 7.45 and channels stimulated every 60 s using a 5 s pH 5 or 6 application, unless stated otherwise. For all concentration-response data, peptides were applied for ~ 50 s between each low pH stimulus application. Activation curves were determined by conditioning oocytes at pH 8 (Fig. 2e − g; and Fig. 5a and b) or 7.45 (Fig. 6; and Supplementary Fig. 2d and c) for 55 s and applying low pH stimuli from 7.25 to 5.0 for 5 s. Steady-state desensitisation (SSD) was determined by applying conditioning solutions of pH values from 8 to 6 for 115 s prior to stimulation by a pH drop to 5 for 5 s. Ma-3 was only applied in the conditioning solution for activation and steady-state desensitisation curves in the presence of peptide. Control pH-dependence curves were determined in the absence of any Ma-3. When assessing the effect of Ma-3 on the rASIC1a: ASIC1b chimeras (C92 and C166; and for the comparative wild-type data), the conditioning pH was 7.45 and stimulating pH 5 (Fig. 3b). Specific details of the conditioning and stimulating pH are noted in each figure legend.
(§3) Data were analysed using pCLAMP-Clampfit software (Version 11, Molecular Devices, CA, USA) and GraphPad Prism 9.5 and 10.2.2 (GraphPad Software, San Diego, CA, USA). To obtain the Hill coefficient (nH) and half-maximal response (EC50, IC50, or pH50) the Hill equation was fitted to normalised concentration-response curves by using a non-linear fit to the data of a four-parameter logistic equation (“sigmoidal dose-response” in GraphPad Prism 9.5). […]

A further test addresses T2, rASIC1a (Rattus norvegicus, UniProt P55926).
T2 construct: expressed in transfected cells; host or cells: Xenopus laevis oocytes (cRNA injection)
T2 sequence (P55926 1-526): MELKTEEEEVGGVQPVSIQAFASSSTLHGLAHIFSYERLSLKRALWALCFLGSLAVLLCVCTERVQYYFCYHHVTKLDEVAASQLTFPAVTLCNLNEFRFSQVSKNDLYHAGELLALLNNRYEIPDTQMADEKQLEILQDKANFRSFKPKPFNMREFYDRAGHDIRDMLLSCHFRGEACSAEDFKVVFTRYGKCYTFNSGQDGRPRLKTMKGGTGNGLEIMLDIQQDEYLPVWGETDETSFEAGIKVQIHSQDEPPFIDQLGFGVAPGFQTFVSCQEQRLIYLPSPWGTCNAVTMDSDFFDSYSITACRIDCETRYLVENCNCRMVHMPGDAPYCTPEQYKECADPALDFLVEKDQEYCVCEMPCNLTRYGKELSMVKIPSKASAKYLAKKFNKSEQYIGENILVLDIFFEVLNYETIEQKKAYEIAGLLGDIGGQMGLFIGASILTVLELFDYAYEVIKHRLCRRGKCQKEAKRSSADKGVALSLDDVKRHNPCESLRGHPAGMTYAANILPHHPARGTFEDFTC
In words: TEVC in Xenopus laevis oocytes expressing rASIC1a. The class given is cell-based. The settings on record: peptides applied at pH 7.45, stimulated at pH 6. The procedure:
as §1, §2, §3

Where two headings read alike, the source gives them in different places. Positions of bridges follow the written chain, without caps; N, C: chain ends. No end group written: not given here.

With “H-SLKCYQHGKVVTCHRDMKFCYHNIGMPFRNAKLILQGCSSSCSETENNKCCSTDRCNK (disulfide 4-20, 13-38, 42-50, 51-56 (inferred)) [L30A]”, the remaining activity at 1 µM at hASIC1b (pH 5 evoked currents) worked out at 116%; on hASIC1b (pH 6 evoked currents), 172%.

Turning to “H-SLKCYQHGKVVTCHRDMKFCYHNIGMPFRNLKLIAQGCSSSCSETENNKCCSTDRCNK (disulfide 4-20, 13-38, 42-50, 51-56 (inferred)) [L34A]”, the values for the remaining activity at 1 µM at hASIC1b (pH 5 evoked currents) and on hASIC1b (pH 6 evoked currents) were 98% and 116%, respectively. For the same substance, the “increase in IC50 (loss of potency) relative to wild-type Ma-3” value on rASIC1a is on record as “greater than 10 fold”.

As for “H-SLKCYQAGKVVTCHRDMKFCYHNIGMPFRNLKLILQGCSSSCSETENNKCCSTDRCNK (disulfide 4-20, 13-38, 42-50, 51-56 (inferred)) [H6A]”, the remaining activity at 1 µM was 98% on hASIC1b (pH 5 evoked currents) and 103% on hASIC1b (pH 6 evoked currents). The “increase in IC50 (loss of potency) relative to wild-type Ma-3” value at rASIC1a is “greater than 10 fold”.

For the substance “H-SLKCYQHGKVVTCHRDMKFCYHNIGMPARNLKLILQGCSSSCSETENNKCCSTDRCNK (disulfide 4-20, 13-38, 42-50, 51-56 (inferred)) [F27A]”, the remaining activity at 1 µM on hASIC1b (pH 5 evoked currents) came to 96%; at hASIC1b (pH 6 evoked currents) it was 111%. The “increase in IC50 (loss of potency) relative to wild-type Ma-3” value at rASIC1a is “greater than 10 fold”.

Consider “H-SLKCYQHGKVVTCARDMKFCYHNIGMPFRNLKLILQGCSSSCSETENNKCCSTDRCNK (disulfide 4-20, 13-38, 42-50, 51-56 (inferred)) [H13A]”, for which the remaining activity at 1 µM on hASIC1b (pH 5 evoked currents) stood at 74%; on hASIC1b (pH 6 evoked currents), 142%.

For “H-SLKCYQHGKVVTCHADMKFCYHNIGMPFRNLKLILQGCSSSCSETENNKCCSTDRCNK (disulfide 4-20, 13-38, 42-50, 51-56 (inferred)) [R14A]”, the figures for the remaining activity at 1 µM on hASIC1b (pH 5 evoked currents) and on hASIC1b (pH 6 evoked currents) were 77% and 157%, respectively.

“H-SLKCYQHGKVVTCHRDMKFCYHNIGMPFRNLKAILQGCSSSCSETENNKCCSTDRCNK (disulfide 4-20, 13-38, 42-50, 51-56 (inferred)) [L32A]”: the remaining activity at 1 µM at hASIC1b (pH 5 evoked currents) came out at 96%; at hASIC1b (pH 6 evoked currents), 100%. Also, the “increase in IC50 (loss of potency) relative to wild-type Ma-3” value on rASIC1a was “greater than 10 fold”.

For the substance “H-SLKCYQHGKVVTCHRDMKFCYHNIGMPFRNLKLILQGCSSSCSETENNKCCSTDRCNA (disulfide 4-20, 13-38, 42-50, 51-56 (inferred)) [K57A]”, the results for the remaining activity at 1 µM at hASIC1b (pH 5 evoked currents) and on hASIC1b (pH 6 evoked currents) were 73% and 147%, respectively.

For “H-SLKCYQHGKVVTCHRDMKFCYHNIGMPFRNLKLILQGCSSSCSETANNKCCSTDRCNK (disulfide 4-20, 13-38, 42-50, 51-56 (inferred)) [E45A]”, the remaining activity at 1 µM turned out to be 68% at hASIC1b (pH 5 evoked currents) and 163% at hASIC1b (pH 6 evoked currents).

On to “H-SLKCYQHGKVVTCHRDMKFCYHNIGMPFRNLKLILQGCSAACSETENNKCCSTDRCNK (disulfide 4-20, 13-38, 42-50, 51-56 (inferred)) [S39A/S40A]”, for which the remaining activity at 1 µM at hASIC1b (pH 5 evoked currents) worked out at 71%; at hASIC1b (pH 6 evoked currents), 165%.

Turning to “H-SLKCYQHGKVVTCHRDMKFCYHNIGMPFRALKLILQGCSSSCSETENNKCCSTDRCNK (disulfide 4-20, 13-38, 42-50, 51-56 (inferred)) [N29A]”, the values for the remaining activity at 1 µM at hASIC1b (pH 5 evoked currents) and on hASIC1b (pH 6 evoked currents) were 76% and 171%, respectively.

For “H-SLKCYQHGKVVTCHRDMKFCYHNIGMPFRNLALILQGCSSSCSETENNKCCSTDRCNK (disulfide 4-20, 13-38, 42-50, 51-56 (inferred)) [K31A]”, the figures for the remaining activity at 1 µM on hASIC1b (pH 5 evoked currents) and at hASIC1b (pH 6 evoked currents) were 94% and 140%, respectively.

“H-SLKCYQHGKVVTCHRDMKFCYHNIGMPFANLKLILQGCSSSCSETENNKCCSTDRCNK (disulfide 4-20, 13-38, 42-50, 51-56 (inferred)) [R28A]”: the remaining activity at 1 µM at hASIC1b (pH 5 evoked currents) was determined as 97%; at hASIC1b (pH 6 evoked currents), 118%. Further, on rASIC1a, the “increase in IC50 (loss of potency) relative to wild-type Ma-3” value is listed as “greater than 10 fold”.

For the substance “H-SLKCYQHGKVVTCHRDMKFCYHNAGMPFRNLKLILQGCSSSCSETENNKCCSTDRCNK (disulfide 4-20, 13-38, 42-50, 51-56 (inferred)) [I23A]”, the remaining activity at 1 µM on hASIC1b (pH 5 evoked currents) was 67%; on hASIC1b (pH 6 evoked currents), 159%.

For the substance “H-SLKCYQHGKVVTCHRDMKFCYHNIGMPFRNLKLALQGCSSSCSETENNKCCSTDRCNK (disulfide 4-20, 13-38, 42-50, 51-56 (inferred)) [I33A]”, the remaining activity at 1 µM at hASIC1b (pH 5 evoked currents) was 100%; at hASIC1b (pH 6 evoked currents), 133%. Besides, on rASIC1a, the “increase in IC50 (loss of potency) relative to wild-type Ma-3” value was “greater than 10 fold”.

“LKCYQHGKVVTCHRDMKFCYHNTGMPFRNLKLILQGCSSSCSETENNKCCSTDRCNK (disulfide 3-19, 12-37, 41-49, 50-55) [Ma-1, reference compound]”: the “Hill slope (95% CI)” value on hASIC1b (conditioning pH 7.45, pH 6 evoked currents, potentiation, 95% CI) is reported as 0.73–2.56.

As to “H-SLKCYQHGKVVTCHRDMKFCYHNIGMPFRNLKLILQGCSSSCSETENNKCCSTDACNK (disulfide 4-20, 13-38, 42-50, 51-56 (inferred)) [R54A]”, the remaining activity at 1 µM on hASIC1b (pH 5 evoked currents) is 79%; at hASIC1b (pH 6 evoked currents), 145%.

As to “H-SLKCYQHGKVVTCHRDMKFCYHNIGMPFRNLKLILAGCSSSCSETENNKCCSTDRCNK (disulfide 4-20, 13-38, 42-50, 51-56 (inferred)) [Q35A]”, the remaining activity at 1 µM on hASIC1b (pH 5 evoked currents) was determined as 71%; on hASIC1b (pH 6 evoked currents), 168%.

Turning to “H-SLKCYQHGKVVTCHRDMKFCYHNIGMPFRNLKLILQGCSSSCSETENNACCSTDRCNK (disulfide 4-20, 13-38, 42-50, 51-56 (inferred)) [K48A]”, the remaining activity at 1 µM on hASIC1b (pH 5 evoked currents) was 70%; on hASIC1b (pH 6 evoked currents), 154%.

Values taken from publication PMC11335189, “Revealing molecular determinants governing mambalgin-3 pharmacology at acid-sensing ion channel 1 variants” (Cellular and Molecular Life Sciences: CMLS, 2024).
